Experimental data as given in PubChem BioAssay AID248 (DTP/NCI, 2004).
“And” between values parts separate entries of the source, which are not always exact repeats. Equal entries are not always repeated. Toxic doses and inconclusive results are not listed. Rule as the data show it: active = T/C of 150% or more; inactive = T/C below 125%.

Test system: L1210 leukemia ip in BDF1 mice, survival T/C
Test: NCI In Vivo Anticancer Drug Screen. Data for tumor model L1210 Leukemia (intraperitoneal) in B6D2F1 (BDF1) mice
Settings: endpoint: mean survival time, higher = longer survival
In short: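 Antitumor effect is assessed in tumor-bearing animals. Survival in the compound arm is compared with a vehicle-dosed control arm and expressed as their quotient.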

[1] = dose: 100.0 mg/kg/injection, schedule: Q04DX003 (ip), vehicle: saline with Tween-80
[2] = dose: 200.0 mg/kg/injection, schedule: Q04DX003 (ip), vehicle: saline with Tween-80
[3] = dose: 400.0 mg/kg/injection, schedule: Q04DX003 (ip), vehicle: saline with Tween-80
[4] = dose: 100.0 mg/kg/injection, schedule: Q01DX001 (ip), vehicle: carboxymethylcellulose (CMC)
[5] = dose: 200.0 mg/kg/injection, schedule: Q01DX001 (ip), vehicle: carboxymethylcellulose (CMC)
[6] = dose: 400.0 mg/kg/injection, schedule: Q01DX001 (ip), vehicle: carboxymethylcellulose (CMC)
[7] = dose: 100.0 mg/kg/injection, schedule: Q04DX002 (ip), vehicle: other
[8] = dose: 200.0 mg/kg/injection, schedule: Q04DX002 (ip), vehicle: other
[9] = dose: 100.0 mg/kg/injection, schedule: Q01DX001 (ip), vehicle: Klucel (hydroxypropylcellulose) (HPC)
[10] = dose: 200.0 mg/kg/injection, schedule: Q01DX001 (ip), vehicle: Klucel (hydroxypropylcellulose) (HPC)
[11] = dose: 100.0 mg/kg/injection, schedule: Q04DX003 (ip), vehicle: Klucel (hydroxypropylcellulose) (HPC)
[12] = dose: 200.0 mg/kg/injection, schedule: Q04DX003 (ip), vehicle: Klucel (hydroxypropylcellulose) (HPC)
[13] = dose: 400.0 mg/kg/injection, schedule: Q04DX003 (ip), vehicle: Klucel (hydroxypropylcellulose) (HPC)
[14] = dose: 100.0 mg/kg/injection, schedule: Q04DX003 (ip), vehicle: saline
[15] = dose: 100.0 mg/kg/injection, schedule: Q01DX009 (ip), vehicle: Klucel (hydroxypropylcellulose) (HPC)
[16] = dose: 200.0 mg/kg/injection, schedule: Q01DX009 (ip), vehicle: Klucel (hydroxypropylcellulose) (HPC)
[17] = dose: 100.0 mg/kg/injection, schedule: Q01DX001 (ip), vehicle: saline
[18] = dose: 200.0 mg/kg/injection, schedule: Q01DX001 (ip), vehicle: saline
[19] = dose: 400.0 mg/kg/injection, schedule: Q01DX009 (ip), vehicle: Klucel (hydroxypropylcellulose) (HPC)

Measured: T/C

C=C1c2c(Cl)cccc2C(CC)(CC)c2cccc(Cl)c21
inactive: [1] 94 % of control | [2] 94 % of control | [3] 92 % of control

COC(=O)CC(CC(=O)OC)c1cccc([N+](=O)[O-])c1
inactive: dose: 25.6 mg/kg/injection, schedule: Q04DX002 (ip), vehicle: saline with Tween-80 101 % of control | dose: 64.0 mg/kg/injection, schedule: Q04DX002 (ip), vehicle: saline with Tween-80 101 % of control | [1] 106 % of control | dose: 160.0 mg/kg/injection, schedule: Q04DX002 (ip), vehicle: saline with Tween-80 101 % of control | [2] 101 % of control | dose: 400.0 mg/kg/injection, schedule: Q04DX002 (ip), vehicle: saline with Tween-80 86 % of control | [3] 101 % of control

C=Cc1cc[n+](Cc2ccc(C[n+]3ccc(C=C)cc3)cc2)cc1
inactive: [4] 91 % of control | [5] 91 % of control | [6] 87 % of control

O=C1CCC(CCl)O1 (centres undefined)
inactive: dose: 75.0 mg/kg/injection, schedule: Q01DX009 (ip), vehicle: other 100 % of control | [7] 93 % of control | dose: 150.0 mg/kg/injection, schedule: Q01DX009 (ip), vehicle: other 104 % of control | [8] 93 % of control | dose: 300.0 mg/kg/injection, schedule: Q01DX009 (ip), vehicle: other 96 % of control | dose: 400.0 mg/kg/injection, schedule: Q04DX002 (ip), vehicle: other 110 % of control

C=C(C)CNC(N)=S
inactive: dose: 75.0 mg/kg/injection, schedule: Q04DX003 (ip), vehicle: Klucel (hydroxypropylcellulose) (HPC) 98 % of control | [9] 105 % of control | dose: 150.0 mg/kg/injection, schedule: Q04DX003 (ip), vehicle: Klucel (hydroxypropylcellulose) (HPC) 89 % of control | [10] 98 % of control | dose: 300.0 mg/kg/injection, schedule: Q04DX003 (ip), vehicle: Klucel (hydroxypropylcellulose) (HPC) 110 % of control | dose: 400.0 mg/kg/injection, schedule: Q01DX001 (ip), vehicle: Klucel (hydroxypropylcellulose) (HPC) 105 % of control

O=C1c2sccc2-c2cccc3cccc1c23 (tested in a mixture with another compound)
inactive: [11] 96 % of control | [12] 102 % of control | [13] 106 % of control

Cc1cc([N+](=O)[O-])sc1[N+](=O)[O-]
inactive: dose: 25.0 mg/kg/injection, schedule: Q01DX009 (ip), vehicle: saline 108 % of control | dose: 50.0 mg/kg/injection, schedule: Q01DX009 (ip), vehicle: saline 97 % of control | dose: 100.0 mg/kg/injection, schedule: Q01DX009 (ip), vehicle: saline 110 % of control | [14] 101 % of control

COc1ccc(-n2c(=O)c(N=Nc3ccccc3C)c(O)n(-c3ccc(Cl)cc3)c2=S)cc1
inactive: dose: 50.0 mg/kg/injection, schedule: Q01DX001 (ip), vehicle: Klucel (hydroxypropylcellulose) (HPC) 100 % of control | [9] 100 % of control | [10] 102 % of control

CCCCCC(CN(C)C)C(=O)/C=C/c1ccc(Cl)cc1 (centres undefined)
inactive: dose: 12.5 mg/kg/injection, schedule: Q01DX009 (sc), vehicle: other 100 % of control | dose: 25.0 mg/kg/injection, schedule: Q01DX009 (sc), vehicle: other 100 % of control | dose: 50.0 mg/kg/injection, schedule: Q01DX009 (sc), vehicle: other 93 % of control | dose: 50.0 mg/kg/injection, schedule: Q04DX003 (sc), vehicle: steriod suspending solution 95 % of control | dose: 75.0 mg/kg/injection, schedule: Q01DX009 (sc), vehicle: other 98 % of control | dose: 100.0 mg/kg/injection, schedule: Q01DX001 (sc), vehicle: steriod suspending solution 91 % of control | dose: 115.0 mg/kg/injection, schedule: Q01DX009 (sc), vehicle: other 100 % of control | dose: 200.0 mg/kg/injection, schedule: Q01DX001 (sc), vehicle: steriod suspending solution 116 % of control

Cc1cc(=O)n(C)c2c(C)cccc12
inactive: [1] 101 % of control | [2] 98 % of control | [3] 98 % of control

CS(=O)(=O)Nc1ccccc1N
inactive: [15] 95 % of control | [16] 93 % of control

C=C1C(=O)N(C)C(C(=O)OC)CC1C(CC)C(=O)OC (centres undefined)
inactive: dose: 25.0 mg/kg/injection, schedule: Q01DX001 (ip), vehicle: saline 104 % of control | dose: 50.0 mg/kg/injection, schedule: Q01DX001 (ip), vehicle: saline 114 % of control | [17] 95 % of control | [18] 108 % of control

C=C(C)C1(CCC(C)C)C(=O)NC(=O)NC1=O
inactive: dose: 75.0 mg/kg/injection, schedule: Q01DX001 (ip), vehicle: saline 109 % of control | dose: 150.0 mg/kg/injection, schedule: Q01DX001 (ip), vehicle: saline 104 % of control | dose: 300.0 mg/kg/injection, schedule: Q01DX001 (ip), vehicle: saline 105 % of control

CCCCS/C=C1/Sc2cc[nH]c2C1=O
inactive: [11] 96 % of control | [12] 96 % of control | [13] 94 % of control

CC(C)(C)OC[CH2][Hg][I]
inactive: dose: 12.5 mg/kg/injection, schedule: Q04DX002 (ip), vehicle: Klucel (hydroxypropylcellulose) (HPC) 96 % of control | dose: 25.0 mg/kg/injection, schedule: Q04DX002 (ip), vehicle: Klucel (hydroxypropylcellulose) (HPC) 104 % of control

COc1cc([N+](=O)[O-])ccc1NC(=O)C(Br)C(Br)c1ccccc1 (centres undefined)
inactive: dose: 100.0 mg/kg/injection, schedule: Q01DX009 (ip), vehicle: other 110 % of control | dose: 200.0 mg/kg/injection, schedule: Q01DX009 (ip), vehicle: other 96 % of control | dose: 400.0 mg/kg/injection, schedule: Q01DX009 (ip), vehicle: other 88 % of control

CC1=NN(c2ccccc2)C(=O)C1N=Nc1ccc(S(=O)(=O)Nc2nnc(C)s2)cc1 (centres undefined)
inactive: [4] 98 % of control | [5] 106 % of control | [6] 93 % of control

Cc1[nH]c2cc(O)c(O)c(C)c2c1C
inactive: [17] 96 % of control

Cc1ccccc1/C(=C/c1ccc([N+](=O)[O-])cc1)C(=O)O
inactive: [15] 95 % of control | [16] 108 % of control | [19] 104 % of control

Nc1n[n+](=O)c2ccccc2n1O
inactive: dose: 1.17 mg/kg/injection, schedule: Q01DX001 (ip), vehicle: other 95 % of control | dose: 2.34 mg/kg/injection, schedule: Q01DX001 (ip), vehicle: other 101 % of control | dose: 4.69 mg/kg/injection, schedule: Q01DX001 (ip), vehicle: other 102 % of control

O=C(COc1ccc([N+](=O)[O-])cc1)Nc1ccc(S(=O)(=O)F)cc1
inactive: [17] 103 % of control | [18] 107 % of control | dose: 400.0 mg/kg/injection, schedule: Q01DX001 (ip), vehicle: saline 103 % of control

Cc1ccc(S(=O)(=O)N(CCCc2c(N)nc(N)nc2-c2ccccc2)c2ccccc2)cc1
inactive: [14] 100 % of control | dose: 200.0 mg/kg/injection, schedule: Q04DX003 (ip), vehicle: saline 97 % of control

CC(C)CC(C=O)(CCN(C)C)c1cccc2ccccc12 (centres undefined)
inactive: dose: 12.5 mg/kg/injection, schedule: Q04DX003 (ip), vehicle: saline with Tween-80 107 % of control | dose: 25.0 mg/kg/injection, schedule: Q04DX003 (ip), vehicle: saline with Tween-80 103 % of control | dose: 50.0 mg/kg/injection, schedule: Q04DX003 (ip), vehicle: saline with Tween-80 92 % of control

O=c1[nH]c(=O)n(C2OC(CO)C(O)C2O)cc1CCC(F)F (centres undefined)
inactive: [7] 105 % of control | [8] 102 % of control

Cc1ncc(C#N)n1Cc1ccccc1
inactive: [15] 98 % of control and 101 % of control | dose: 100.0 mg/kg/injection, schedule: Q04DX002 (ip), vehicle: Klucel (hydroxypropylcellulose) (HPC) 101 % of control and 113 % of control | [11] 109 % of control | [16] 101 % of control and 103 % of control | dose: 200.0 mg/kg/injection, schedule: Q04DX002 (ip), vehicle: Klucel (hydroxypropylcellulose) (HPC) 103 % of control and 108 % of control | [12] 104 % of control | [19] 101 % of control | dose: 400.0 mg/kg/injection, schedule: Q04DX002 (ip), vehicle: Klucel (hydroxypropylcellulose) (HPC) 103 % of control and 109 % of control | [13] 111 % of control

CCC1(CC)c2ccccc2C(CC)(CC)[N+]1(C)C
inactive: [4] 102 % of control | [5] 98 % of control
